# Reference: patent US9687479B2, “Multisubstituted aromatic compounds as serine protease inhibitors” (VERSEON CORPORATION, priority 2013, dated 2017)
# Molecular target: Human thrombin (Homo sapiens (Human), UniProt P00734)
# Experiment: Thrombin protease activity inhibition assay (chromogenic substrate S-2238)
# Type: biochemical
# Settings: 3 nM thrombin, 125 μM S-2238, 10 min pre-incubation, RT
# Outline: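 Thrombin at 3 nM final in 0.05 M Tris pH 7.4, 0.015 M NaCl, 0.01% PEG-8000, at room temperature; compounds as ten-point three-fold dilutions.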
row,Compound,IC50
1,"O=C(c1ccco1)n1nc(-c2cccn(Cc3ccoc3)c2=O)cc1NCc1ccc(Cl)s1 [Cmpd 162, 3-(5-[(5-chlorothiophen-2-yl)methyl]amino-1-[(furan-2-yl)carbonyl]-1H-pyrazol-3-yl)-1-(furan-3-ylmethyl)-1,2-dihydropyridin-2-one]",< 100 nM
2,"Nc1ccccc1C(=O)n1nc(-c2ccc[nH]c2=O)cc1NCc1ccc(Cl)s1 [Cmpd 241, 3-1-[(2-aminophenyl)carbonyl]-5-[(5-chlorothiophen-2-yl)methyl]amino-1H-pyrazol-3-yl-1,2-dihydropyridin-2-one]",< 100 nM
3,"O=C(c1ccsc1)n1nc(-c2cccn(Cc3cccnc3)c2=O)cc1NCc1ccc(Cl)s1 [Cmpd 199, 3-(5-[(5-chlorothiophen-2-yl)methyl]amino-1-[(thiophen-3-yl)carbonyl]-1H-pyrazol-3-yl)-1-(pyridin-3-ylmethyl)-1,2-dihydropyridin-2-one]",> 100000 nM
4,"O=C(c1ccco1)n1nc(-c2cccn(CCN3CCOCC3)c2=O)cc1NCc1ccc(Cl)s1 [Cmpd 170, 3-(5-[(5-chlorothiophen-2-yl)methyl]amino-1-[(furan-2-yl)carbonyl]-1H-pyrazol-3-yl)-1-[2-(morpholin-4-yl)ethyl]-1,2-dihydropyridin-2-one]",> 100000 nM
5,"O=C(c1ccccc1Cl)n1nc(-c2cccn(CCN3CCOCC3)c2=O)cc1NCc1ccc(Cl)s1 [Cmpd 252, 3-1-[(2-chlorophenyl)carbonyl]-5-[(5-chlorothiophen-2-yl)methyl]amino-1H-pyrazol-3-yl-1-[2-(morpholin-4-yl)ethyl]-1,2-dihydropyridin-2-one]",< 100 nM
6,"O=C(c1ccco1)n1nc(-c2cccn(Cc3ccncc3)c2=O)cc1NCc1ccc(Cl)s1 [Cmpd 166, 3-(5-[(5-chlorothiophen-2-yl)methyl]amino-1-[(furan-2-yl)carbonyl]-1H-pyrazol-3-yl)-1-(pyridin-4-ylmethyl)-1,2-dihydropyridin-2-one]",< 100 nM
7,"O=c1c(-c2cc(NCc3ccc(Cl)s3)[nH]n2)cccn1Cc1ccccc1 [Cmpd 54, 1-benzyl-3-(5-[(5-chlorothiophen-2-yl)methyl]amino-1H-pyrazol-3-yl)-1,2-dihydropyridin-2-one]",1000 to 10000 nM
8,"O=C(c1ccccc1Cl)n1nc(-c2cccn(Cc3ccccc3)c2=O)cc1NCc1ccc(Cl)s1 [Cmpd 55, 1-benzyl-3-1-[(2-chlorophenyl)carbonyl]-5-[(5-chlorothiophen-2-yl)methyl]amino-1H-pyrazol-3-yl-1,2-dihydropyridin-2-one]",< 100 nM
9,"COCCn1cccc(-c2cc(NCc3ccc(Cl)s3)n(C(=O)C(C)(C)C)n2)c1=O [Cmpd 75, 3-(5-[(5-chlorothiophen-2-yl)methyl]amino-1-(2,2-dimethylpropanoyl)-1H-pyrazol-3-yl)-1-(2-methoxyethyl)-1,2-dihydropyridin-2-one]",< 100 nM
10,"O=c1c(-c2cc(NCc3ccc(Cl)s3)[nH]n2)cccn1Cc1ncccn1 [Cmpd 230, 3-(5-[(5-chlorothiophen-2-yl)methyl]amino-1H-pyrazol-3-yl)-1-(pyrimidin-2-ylmethyl)-1,2-dihydropyridin-2-one]",> 100000 nM
11,"O=C(c1ccco1)n1nc(-c2cccn(Cc3ncccn3)c2=O)cc1NCc1ccc(Cl)s1 [Cmpd 167, 3-(5-[(5-chlorothiophen-2-yl)methyl]amino-1-[(furan-2-yl)carbonyl]-1H-pyrazol-3-yl)-1-(pyrimidin-2-ylmethyl)-1,2-dihydropyridin-2-one]",< 100 nM
12,"O=C(c1ccccc1)n1nc(-c2cccn(Cc3ccncc3)c2=O)cc1NCc1ccc(Cl)s1 [Cmpd 68, 3-(1-benzoyl-5-[(5-chlorothiophen-2-yl)methyl]amino-1H-pyrazol-3-yl)-1-(pyridin-4-ylmethyl)-1,2-dihydropyridin-2-one]",> 100000 nM
13,"CC(C)(C)C(=O)n1nc(-c2cccn(Cc3cccs3)c2=O)cc1NCc1ccc(Cl)s1 [Cmpd 86, 3-(5-[(5-chlorothiophen-2-yl)methyl]amino-1-(2,2-dimethylpropanoyl)-1H-pyrazol-3-yl)-1-(thiophen-2-ylmethyl)-1,2-dihydropyridin-2-one]",< 100 nM
